Calls of active or inactive are those of the source.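 The calls were made as follows: active = signal drops, with AC50 within twice each sample's top valid tested dose; inconclusive = flat curve at 30 to 70% inhibition, or poor fit; inactive = signal moves against the expected drop, plus the rest.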
Biological target: Mitogen-activated protein kinase 3 (Homo sapiens) (UniProt P27361)
Experiment: MAPK3 enzymatic activity blockade – biochemical, ADP-Glo luminescence, dry powder, set 2, selectivity assay for Dyrk1A inhibitor NFAT project, dose response (AID 651659)
Settings: ERK1 kinase, 120 min

Sequence of Mitogen-activated protein kinase 3 (Homo sapiens) (P27361 whole entry, looked up): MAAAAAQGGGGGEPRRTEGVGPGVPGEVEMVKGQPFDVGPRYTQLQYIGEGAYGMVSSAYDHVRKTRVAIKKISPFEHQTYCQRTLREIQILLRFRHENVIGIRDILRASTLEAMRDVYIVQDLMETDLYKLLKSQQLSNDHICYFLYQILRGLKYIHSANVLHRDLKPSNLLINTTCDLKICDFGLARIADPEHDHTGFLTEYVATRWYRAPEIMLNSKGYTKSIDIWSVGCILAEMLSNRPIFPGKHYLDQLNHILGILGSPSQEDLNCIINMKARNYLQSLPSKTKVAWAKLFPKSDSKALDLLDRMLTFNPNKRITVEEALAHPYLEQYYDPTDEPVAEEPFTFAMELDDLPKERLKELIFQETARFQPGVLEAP

SMILES | AC50
CN(CC(=O)Nc1nc2ccc(Cl)cc2s1)S(=O)(=O)c1ccc(C#N)cc1 | 5.91 µM
CN(CC(=O)Nc1nc2ccc(F)cc2s1)S(=O)(=O)c1ccc(Cl)cc1 | > 20 µM (inactive)
COc1ccc(-c2csc(NC(=O)CSCC(=O)N3CCCC3)n2)cc1 | > 20 µM (inactive)

Same assay, conditions: ERK1 kinase, 120 min, at 1.1 µM (top of the series)

SMILES | activity change, negative = inhibition
CC(C)n1cnc2cc(NCc3cccc4ccccc34)ccc21 | inactive

Same assay, conditions: ERK1 kinase, 120 min, at 10 µM (top of the series)

SMILES | activity change, negative = inhibition
O=C(NCc1ccco1)c1sc2ccccc2c1Cl | inactive
COc1ccc2c(Cl)c(C(=O)NC(C)C)sc2c1 | inactive
O=C(NCc1ccccc1)c1sc2ccccc2c1Cl | inactive
CN(CC(=O)Nc1nc2ccc(Cl)cc2s1)S(=O)(=O)c1ccc(Cl)cc1 | inactive
CN(CC(=O)Nc1nc2ccccc2s1)S(=O)(=O)c1ccccc1 | inactive
COc1ccc2nc(NC(=O)C3CCCN(S(=O)(=O)c4cccc5nonc45)C3)sc2c1 (stereo not given) | inactive
COc1ccc2c(Cl)c(C(=O)NCc3cccnc3)sc2c1 | inactive
Cc1csc(NC(=O)C2CCCN(S(=O)(=O)c3cccc4nonc34)C2)n1 (stereo not given) | inactive
COc1ccc2nc(NC(=O)C3CCN(S(=O)(=O)c4cccc5nonc45)CC3)sc2c1 | inactive
Cc1ccc(S(=O)(=O)N(C)CC(=O)Nc2nc3ccc(Cl)cc3s2)cc1C | inactive
COc1ccc(C2=Nn3c(nnc3-c3cccnc3)SC2)cc1OC | inactive
COc1ccc(OC)c(CNC(=O)c2sc3ccccc3c2Cl)c1 | inactive
CCOc1ccc2nc(NC(=O)C3CCCN(S(=O)(=O)c4cccc5cccnc45)C3)sc2c1 (stereo not given) | inactive
COc1ccc2nc(NC(=O)C3CCN(S(=O)(=O)c4cccnc4)CC3)sc2c1 | inactive
COc1cccc(C2=Nn3c(nnc3-c3ccccc3)SC2)c1 | inactive
COc1ccc(OC)c(C2=Nn3c(nnc3-c3ccccc3)SC2)c1 | inactive
Cc1sc(NC(=O)CSCc2ccccc2)nc1-c1ccccc1 | inactive
COc1ccc(C2=Nn3c(nnc3-c3ccncc3)SC2)cc1 | inactive
COc1ccc2c(c1)[nH]c1c(C)nccc12 | inactive
COc1ccc2nc(NC(=O)C3CCN(S(=O)(=O)c4ccc(C)cc4)CC3)sc2c1 | inactive
COc1ccc2nc(NC(=O)C3CCCN(S(=O)(=O)c4cccc5nsnc45)C3)sc2c1 (stereo not given) | inactive

SMILES | activity change, negative = inhibition
C=CCn1cnc2scc(-c3ccc(OC)cc3)c2c1=O | inactive
COc1ccc(S(=O)(=O)N2CCCC(C(=O)Nc3nc4ccccc4s3)C2)cc1 (stereo not given) | inactive
Clc1ccc(CSc2nc(Nc3ccc4c(c3)OCO4)c3ccccc3n2)cc1 | inactive
Cc1ccc(S(=O)(=O)N(C)CC(=O)Nc2nc3ccccc3s2)cc1 | inactive
COc1ccc2nc(NC(=O)CN(C)S(=O)(=O)c3ccc(F)cc3)sc2c1 | inactive
Cc1ccccc1S(=O)(=O)Cc1ccc(C(=O)NC(C)c2ccc3c(c2)OCCO3)o1 (stereo not given) | inactive
CCCCN(c1nc2ccccc2s1)S(=O)(=O)c1ccc(Cl)cc1 | inactive
COc1ccc(OC)c(C2=Nn3c(nnc3-c3ccccn3)SC2)c1 | inactive
CN(CC(=O)Nc1nc2ccccc2s1)S(=O)(=O)c1ccc(Cl)cc1 | inactive
COc1ccc2nc(NC(=O)C3CCN(S(=O)(=O)c4cccc5nsnc45)CC3)sc2c1 | inactive
COc1ccc2c(Cl)c(C(=O)NCc3ccccc3)sc2c1 | inactive
COc1ccc(NC(=O)C2CCCN(S(=O)(=O)c3cccc4nonc34)C2)cc1 (stereo not given) | inactive
CCOc1ccc2nc(NC(=O)COc3ccc(Cl)c(OC)c3)sc2c1 | inactive
COc1ccc2c(Cl)c(C(N)=O)sc2c1 | inactive
Cc1cccc2sc(NC(=O)CN(C)S(=O)(=O)c3ccc(Cl)cc3)nc12 | inactive
CN(CC(=O)Nc1nccs1)S(=O)(=O)c1ccc(Cl)cc1 | inactive
COc1ccc2nc(NC(=O)C3CCCN(S(=O)(=O)c4cccc5cccnc45)C3)sc2c1 (stereo not given) | inactive
COc1ccc(CNC(=O)c2sc3ccccc3c2Cl)cc1 | inactive
COc1ccc(C2=Nn3c(nnc3-c3cccnc3)SC2)cc1 | inactive
COc1ccc(OC)c(C2=Nn3c(nnc3-c3ccncc3)SC2)c1 | inactive
